Our source for the inhibition and IL-1β % inhibition values is patent publication US7297700B2, “Bicycloheteroaryl compounds as P2X7 modulators and uses thereof” (Renovis, Inc., priority 2005, dated 2007).

Molecules are shown by their SMILES.

The first test concerns IL-1β release from THP-1 cells. Kind of test: IL-1β Release Assay (Alternate Method), THP-1 cells. It is filed as cell-based, human. The settings on record: Homo sapiens, THP-1, read-out: IL-1β % inhibition. The gist of the method: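 IL-1β release, measured by ELISA, follows 45 min BzATP (250 uM final) stimulation of THP-1 cells given 30 min compound pretreatment. Cells were first primed 16 h with LPS and IFN-γ (100 ng/mL each), then 2 h with fresh LPS; inhibition expressed in percent after background correction.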
For `O=C(Nc1ncnc2c1CCN(Cc1ccccc1)C2)C12CC3CC(CC(C3)C1)C2` [Compound 334, Adamantane-1-carboxylic acid(7-benzyl-5,6,7,8-tetrahydro-pyrido[3,4-d]pyrimidin-4-yl)-amide], the inhibition at 0.3 µM fell in the range of 50 to 75%.

The same test, now with this note: Homo sapiens; at 0.3 μM; THP-1 cells; read-out: IL-1β % inhibition.
Turning to `O=C(CC12CC3CC(CC(C3)C1)C2)Nc1ncnc2c1CCN(C(=O)c1ccccc1)C2` [Compound 220], the inhibition at 0.3 µM is more than 75%.

The test is the same for the next values; noted with them: at 0.3 μM; THP-1 cells.
For `CN1CCc2c(ncnc2NC(=O)CC2CCCCC2)C1` [Compound 26], the IL-1β % inhibition entry was “+++ (compound exhibited 50-75% inhibition at 0.3 μM)”.

For `Cc1ccc(CN2CCc3c(ncnc3NC(=O)CC34CC5CC(CC(C5)C3)C4)C2)c(C)c1` [Compound 320], the IL-1β % inhibition result was “+ (compound exhibited 0-25% inhibition at 0.3 μM)”.

As for `O=C(CC12CC3CC(CC(C3)C1)C2)Nc1ncnc2c1CCN(Cc1ccc(-c3ccccc3)s1)C2` [Compound 79], the IL-1β % inhibition entry is on record as “+ (compound exhibited 0-25% inhibition at 0.3 μM)”.

In the case of `O=C(CC12CC3CC(CC(C3)C1)C2)Nc1ncnc2c1CCN(S(=O)(=O)c1cc(Cl)cc(Cl)c1)C2` [Compound 208], the IL-1β % inhibition entry is recorded as “+++ (compound exhibited 50-75% inhibition at 0.3 μM)”.

As to `O=C(CC12CC3CC(CC(C3)C1)C2)Nc1ncnc2c1CCN(C(=O)c1cccnc1Cl)C2` [Compound 222], the IL-1β % inhibition entry is given as “+++ (compound exhibited 50-75% inhibition at 0.3 μM)”.

For the molecule `COc1ccc(CN2CCc3c(ncnc3NC(=O)CC34CC5CC(CC(C5)C3)C4)C2)cc1OC` [Compound 36], the IL-1β % inhibition result is given as “+ (compound exhibited 0-25% inhibition at 0.3 μM)”.

Take `CC(C)(C)CC(=O)N1CCc2c(ncnc2NC(=O)C(C)(C)C23CC4CC(CC(C4)C2)C3)C1` [Compound 367]: the IL-1β % inhibition result is listed as “+ (compound exhibited 0-25% inhibition at 0.3 μM)”.

With `O=C(CC12CC3CC(CC(C3)C1)C2)Nc1ncnc2c1CCN(Cc1ccc(OC(F)(F)F)cc1)C2` [Compound 74], the IL-1β % inhibition entry was “+ (compound exhibited 0-25% inhibition at 0.3 μM)”.

In the case of `COc1ccc(Oc2ccc(S(=O)(=O)N3CCc4c(ncnc4NC(=O)CC45CC6CC(CC(C6)C4)C5)C3)cc2)cc1` [Compound 175], the IL-1β % inhibition entry is given as “+++ (compound exhibited 50-75% inhibition at 0.3 μM)”.

For `CCc1ccc(CN2CCc3c(ncnc3NC(=O)CC34CC5CC(CC(C5)C3)C4)C2)cc1` [Compound 45], the IL-1β % inhibition entry was “+ (compound exhibited 0-25% inhibition at 0.3 μM)”.

For `CC12CC3CC(C)(C1)CC(CC(=O)Nc1ncnc4c1CCN(S(=O)(=O)Cc1ccc(Cl)c(Cl)c1)C4)(C3)C2` [Compound 378], the IL-1β % inhibition entry is “+++ (compound exhibited 50-75% inhibition at 0.3 μM)”.

With `N#Cc1ccc(C(=O)N2CCc3c(ncnc3NC(=O)CC34CC5CC(CC(C5)C3)C4)C2)cc1` [Compound 257], the IL-1β % inhibition result is reported as “+ (compound exhibited 0-25% inhibition at 0.3 μM)”.

As for `COc1ccc(F)cc1CN1CCc2c(ncnc2NC(=O)CC23CC4CC(CC(C4)C2)C3)C1` [Compound 102], the IL-1β % inhibition result is on record as “+ (compound exhibited 0-25% inhibition at 0.3 μM)”.

In the case of `COc1ccc(CN2CCc3c(ncnc3C(=O)NCC3CCCCC3)C2)cc1` [Compound 54], the IL-1β % inhibition entry is listed as “+ (compound exhibited 0-25% inhibition at 0.3 μM)”.

For the molecule `O=C(CC12CC3CC(CC(C3)C1)C2)Nc1ncnc2c1CCN(C(=O)c1ccncc1)C2` [Compound 304], the IL-1β % inhibition result is given as “+ (compound exhibited 0-25% inhibition at 0.3 μM)”.

Regarding `O=C(NCC1CCCCC1)c1ncnc2c1CCN(Cc1ccccc1Cl)C2` [Compound 50], the IL-1β % inhibition result is “+ (compound exhibited 0-25% inhibition at 0.3 μM)”.

Turning to `O=C(CC12CC3CC(CC(C3)C1)C2)Nc1ncnc2c1CCN(S(=O)(=O)c1ccc(F)c(Cl)c1)C2` [Compound 193], the IL-1β % inhibition entry is listed as “+ (compound exhibited 0-25% inhibition at 0.3 μM)”.

As to `Cc1c(S(=O)(=O)N2CCc3c(ncnc3NC(=O)CC34CC5CC(CC(C5)C3)C4)C2)cnn1-c1ccccc1` [Compound 160], the IL-1β % inhibition result is recorded as “++++ (compound exhibited 75% or greater inhibition at 0.3 μM)”.

`Cc1cccc(C(=O)N2CCc3c(ncnc3NC(=O)CC34CC5CC(C)(CC(C)(C5)C3)C4)C2)c1` [Compound 382]: the IL-1β % inhibition result is on record as “++ (compound exhibited 25-50% inhibition at 0.3 μM)”.

For `O=C(NCCc1ccccc1)c1ncnc2c1CCNC2` [Compound 3], the IL-1β % inhibition result was “+ (compound exhibited 0-25% inhibition at 0.3 μM)”.

With `O=C(CC12CC3CC(CC(C3)C1)C2)Nc1ncnc2c1CCN(S(=O)(=O)c1ccc(Cl)c(Cl)c1)C2` [Compound 155], the IL-1β % inhibition entry is given as “+ (compound exhibited 0-25% inhibition at 0.3 μM)”.

As for `COc1cc(OC)cc(C(=O)N2CCc3c(ncnc3NC(=O)CC34CC5CC(CC(C5)C3)C4)C2)c1` [Compound 246], the IL-1β % inhibition entry is listed as “++ (compound exhibited 25-50% inhibition at 0.3 μM)”.

`Cc1cc(C)cc(S(=O)(=O)N2CCc3c(ncnc3NC(=O)CC34CC5CC(CC(C5)C3)C4)C2)c1` [Compound 217]: the IL-1β % inhibition result is on record as “+ (compound exhibited 0-25% inhibition at 0.3 μM)”.

With `COc1ccc(S(=O)(=O)N2CCc3c(ncnc3NC(=O)CC34CC5CC(CC(C5)C3)C4)C2)c(OC)c1` [Compound 197], the IL-1β % inhibition entry is on record as “++++ (compound exhibited 75% or greater inhibition at 0.3 μM)”.

For the molecule `O=C(CC1CCCCCC1)Nc1ncnc2c1CCN(CCc1ccccc1)C2` [Compound 129], the IL-1β % inhibition result is reported as “+ (compound exhibited 0-25% inhibition at 0.3 μM)”.

For the molecule `Cc1cccc(CN2CCc3c(ncnc3NC(=O)CC34CC5CC(CC(C5)C3)C4)C2)n1` [Compound 118], the IL-1β % inhibition result is “+ (compound exhibited 0-25% inhibition at 0.3 μM)”.

In the case of `CC12CC3CC(C)(C1)CC(CC(=O)Nc1ncnc4c1CCN(C(=O)C1CCCCC1)C4)(C3)C2` [Compound 386], the IL-1β % inhibition result is “++ (compound exhibited 25-50% inhibition at 0.3 μM)”.

On to `O=C(CC12CC3CC(CC(C3)C1)C2)Nc1ncnc2c1CCN(S(=O)(=O)c1ccc(Oc3ccc(C(F)(F)F)cc3)cc1)C2` [Compound 177], for which the IL-1β % inhibition entry was “++ (compound exhibited 25-50% inhibition at 0.3 μM)”.

As for `O=C(CC1CCCCC1)Nc1ncnc2c1CCN(Cc1ccccc1)C2` [Compound 9], the IL-1β % inhibition entry is given as “+ (compound exhibited 0-25% inhibition at 0.3 μM)”.

Regarding `O=C(CC12CC3CC(CC(C3)C1)C2)Nc1ncnc2c1CCN(S(=O)(=O)Cc1ccc(Cl)c(Cl)c1)C2` [Compound 185], the IL-1β % inhibition result was “++ (compound exhibited 25-50% inhibition at 0.3 μM)”.

Regarding `O=C(CC12CC3CC(CC(C3)C1)C2)Nc1ncnc2c1CCN(Cc1ccc(-c3ccccn3)cc1)C2` [Compound 65], the IL-1β % inhibition result is listed as “+ (compound exhibited 0-25% inhibition at 0.3 μM)”.

With `CCCCc1nc(CN2CCc3c(ncnc3NC(=O)CC34CC5CC(CC(C5)C3)C4)C2)c[nH]1` [Compound 80], the IL-1β % inhibition result is “++ (compound exhibited 25-50% inhibition at 0.3 μM)”.

On to `CC(C)(C(=O)Nc1ncnc2c1CCN(Cc1ccccc1Cl)C2)C12CC3CC(CC(C3)C1)C2` [Compound 348], for which the IL-1β % inhibition result was “+ (compound exhibited 0-25% inhibition at 0.3 μM)”.

With `O=C(CC12CC3CC(CC(C3)C1)C2)Nc1ncnc2c1CCN(Cc1ccc(F)c(Cl)c1)C2` [Compound 323], the IL-1β % inhibition entry was “+ (compound exhibited 0-25% inhibition at 0.3 μM)”.

On to `CSc1ccc(CN2CCc3c(ncnc3NC(=O)CC34CC5CC(CC(C5)C3)C4)C2)cc1` [Compound 116], for which the IL-1β % inhibition result was “+ (compound exhibited 0-25% inhibition at 0.3 μM)”.

For the molecule `O=C(CC12CC3CC(CC(C3)C1)C2)Nc1ncnc2c1CCN(S(=O)(=O)c1ccc(Oc3ccccc3)cc1)C2` [Compound 191], the IL-1β % inhibition result is “+ (compound exhibited 0-25% inhibition at 0.3 μM)”.

For the molecule `O=C(CC12CC3CC(CC(C3)C1)C2)Nc1ncnc2c1CCN(S(=O)(=O)Cc1ccccc1)C2` [Compound 153], the IL-1β % inhibition result is recorded as “++++ (compound exhibited 75% or greater inhibition at 0.3 μM)”.

Still in this test, the particulars now being: at 0.3 μM; THP-1 cells, BzATP-stimulated.
Turning to `O=C(c1cccc(Cl)c1Cl)N1CCc2c(ncnc2NC(=O)C23CC4CC(CC(C4)C2)C3)C1` [Compound 454], the IL-1β % inhibition result is “++ (compound exhibited 25-50% inhibition at 0.3 μM)”.

For `COc1cc(CN2CCc3c(ncnc3NC(=O)C34CC5CC(CC(C5)C3)C4)C2)cc(Br)c1OC` [Compound 594], the IL-1β % inhibition entry is “+ (compound exhibited 0-25% inhibition at 0.3 μM)”.

Consider `O=C(Nc1ncnc2c1CCN(S(=O)(=O)c1ccc(OC(F)F)cc1)C2)C12CC3CC(CC(C3)C1)C2` [Compound 523], for which the IL-1β % inhibition result is listed as “+ (compound exhibited 0-25% inhibition at 0.3 μM)”.

Turning to `Cc1ccccc1S(=O)(=O)N1CCc2c(ncnc2NC(=O)C23CC4CC(CC(C4)C2)C3)C1` [Compound 533], the IL-1β % inhibition result is given as “+++ (compound exhibited 50-75% inhibition at 0.3 μM)”.

As for `COc1cccc(S(=O)(=O)N2CCc3c(ncnc3NC(=O)C34CC5CC(CC(C5)C3)C4)C2)c1` [Compound 498], the IL-1β % inhibition entry is listed as “+ (compound exhibited 0-25% inhibition at 0.3 μM)”.

Consider `Cc1ccccc1C(=O)N1CCc2c(ncnc2NC(=O)C23CC4CC(CC(C4)C2)C3)C1` [Compound 450], for which the IL-1β % inhibition result is “+ (compound exhibited 0-25% inhibition at 0.3 μM)”.

Take `O=C(c1cc(F)ccc1F)N1CCc2c(ncnc2NC(=O)C23CC4CC(CC(C4)C2)C3)C1` [Compound 451]: the IL-1β % inhibition entry was “+ (compound exhibited 0-25% inhibition at 0.3 μM)”.

For the molecule `COc1cc(OC)cc(C(=O)N2CCc3c(ncnc3NC(=O)C34CC5CC(CC(C5)C3)C4)C2)c1` [Compound 418], the IL-1β % inhibition entry is “++ (compound exhibited 25-50% inhibition at 0.3 μM)”.

`COc1ccc(C)cc1S(=O)(=O)N1CCc2c(ncnc2NC(=O)C23CC4CC(CC(C4)C2)C3)C1` [Compound 548]: the IL-1β % inhibition entry was “+ (compound exhibited 0-25% inhibition at 0.3 μM)”.

In the case of `O=C(Nc1ncnc2c1CCN(S(=O)(=O)c1cc(C(F)(F)F)ccc1Cl)C2)C12CC3CC(CC(C3)C1)C2` [Compound 514], the IL-1β % inhibition result was “+ (compound exhibited 0-25% inhibition at 0.3 μM)”.
